Measured values: article PMC3705364, “Biochemical and Electrophysiological Characterization of Two Sea Anemone Type 1 Potassium Toxins from a Geographically Distant Population of Bunodosoma caissarum” (Marine Drugs, 2013)
Where a SMILES comes first, the peptide text is derived from it. Bridges are numbered along the chain shown (N, C = ends).

What was measured:
rKV1.6 = target: T1, rKV1.6 (Rattus norvegicus, UniProt P17659); test: Two-electrode voltage-clamp, X. laevis oocytes expressing rKV1.6; format: cell-based; conditions: mean ± standard error
T1 construct: expressed in transfected cells; host or cells: Xenopus laevis oocytes injected with cRNA
T1 sequence (P17659 whole entry): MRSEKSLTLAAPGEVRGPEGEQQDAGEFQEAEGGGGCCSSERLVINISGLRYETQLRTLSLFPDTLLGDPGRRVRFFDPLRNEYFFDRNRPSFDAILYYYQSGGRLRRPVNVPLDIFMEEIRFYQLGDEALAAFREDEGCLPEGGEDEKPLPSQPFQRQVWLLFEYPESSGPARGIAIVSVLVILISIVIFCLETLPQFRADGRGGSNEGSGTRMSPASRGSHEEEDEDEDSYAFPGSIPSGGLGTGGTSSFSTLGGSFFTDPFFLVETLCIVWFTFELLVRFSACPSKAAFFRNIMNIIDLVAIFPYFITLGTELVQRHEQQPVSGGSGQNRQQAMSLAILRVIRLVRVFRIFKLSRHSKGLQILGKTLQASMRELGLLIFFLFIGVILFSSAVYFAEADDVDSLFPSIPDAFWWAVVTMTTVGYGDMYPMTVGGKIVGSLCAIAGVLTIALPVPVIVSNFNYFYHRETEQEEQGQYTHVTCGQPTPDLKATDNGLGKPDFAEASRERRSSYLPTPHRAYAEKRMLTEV
Experimental: (§1) Stage V–VI of X. laevis oocytes were harvested by partial ovariectomy under anesthesia (3-aminobenzoic acid ethyl ester methanesulfonate salt, 0.5 g/L from Sigma-Aldrich Co., Saint Louis, MO, USA). The oocytes were defolliculated for 2 h by treatment with 2 mg/mL collagenase (Sigma-Aldrich Co., Saint Louis, MO, USA) in Ca^2+ free ND96 solution (in mM: 96 NaCl; 2 KCl; 1 MgCl2; 5 HEPES adjusted pH 7.4). For the expression of KV channels (KV1.1–KV1.6, KV2.1, KV3.1, KV4.2, KV4.3, hERG and the insect channel Shaker IR), the linearized plasmids were transcribed using the T7 or SP6 mMessage-mMachine transcription kit (Ambion, Austin, TX, USA). Oocytes were injected with 50 nL of cRNA at a concentration of 1 ng/nL using a microinjector (Drummond Scientific, Broomall, PA, USA). The oocytes were maintained in a ND96 solution (in mM: 96 NaCl, 2 KCl, 1.8 CaCl2, 2 MgCl2 and 5 HEPES; adjusted pH 7.4), supplemented with 50 µg/mL gentamicin sulfate.
(§2) Two-electrode voltage-clamp recordings were performed at room temperature (18–22 °C) using a Geneclamp 500 amplifier (Molecular Devices, Sunnyvale, CA, USA) controlled by a pClamp data acquisition system (Axon Instruments, Union City, CA, USA). Whole-cell currents from oocytes were recorded from 1 to 3 days after injection. Bath solution was the same ND96 solution described above. Voltage and current electrodes were filled with 3 M KCl. Resistances of both electrodes were kept between 0.8 and 1.0 ΩM. The elicited currents were filtered at 500 Hz using a four-pole lowpass Bessel filter. Leak subtraction was performed using a −P/4 protocol. KV1.1–KV1.6 and Shaker IR currents were evoked by 500 ms depolarizations to 0 mV, followed by a 500 ms pulse to −50 mV, from a holding potential of −90 mV. Current traces of hERG channels were elicited by applying a +40 mV prepulse for 2 s, followed by a step to −120 mV for 2 s. KV3.1, KV 4.2 and KV4.3 currents were elicited by 500 ms pulses to +20 mV from a holding potential of −90 mV. To assess the concentration-response relationships, data were fitted with the Hill equation: y = 100/[1 + (EC50/[toxin])h] (1) where y is the amplitude of the toxin-induced effect, EC50 is the toxin concentration at half maximal efficacy, [toxin] is the toxin concentration and h is the Hill coefficient. In order to investigate the current-voltage relationship, current traces were evoked by 10 mV depolarization steps from a holding potential of −90 mV. […]
(§3) Comparison of two sample means was made using a paired Student’s t test (p < 0.05). […] All data were analyzed using Clampfit 10.3 (Molecular Devices, Sunnyvale, CA, USA) and Origin 7.5 software (Origin Lab., Northampton, MA, USA).

hKV1.3 = hKV1.3 (Homo sapiens, UniProt P22001); test: Two-electrode voltage-clamp, X. laevis oocytes expressing hKV1.3; format: cell-based; parameters: expressed in transfected cells; host or cells: Xenopus laevis oocytes injected with cRNA
hKV1.3, sequence (P22001 whole entry): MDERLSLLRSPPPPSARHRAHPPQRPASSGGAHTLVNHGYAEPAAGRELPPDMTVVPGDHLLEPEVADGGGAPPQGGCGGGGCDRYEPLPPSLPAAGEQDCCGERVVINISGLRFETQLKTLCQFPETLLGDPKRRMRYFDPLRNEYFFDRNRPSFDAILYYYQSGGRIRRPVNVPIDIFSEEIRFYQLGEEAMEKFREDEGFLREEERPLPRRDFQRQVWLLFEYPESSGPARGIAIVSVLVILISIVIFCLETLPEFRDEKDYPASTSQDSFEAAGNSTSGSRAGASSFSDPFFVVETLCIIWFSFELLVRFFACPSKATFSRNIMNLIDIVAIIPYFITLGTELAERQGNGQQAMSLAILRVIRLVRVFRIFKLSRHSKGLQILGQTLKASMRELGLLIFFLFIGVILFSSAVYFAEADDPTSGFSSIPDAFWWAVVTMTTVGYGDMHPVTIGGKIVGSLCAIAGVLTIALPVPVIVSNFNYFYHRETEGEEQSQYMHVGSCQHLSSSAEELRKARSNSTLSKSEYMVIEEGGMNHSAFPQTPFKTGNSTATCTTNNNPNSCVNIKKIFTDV
Experimental: as §1, §2, §3

SMILES: CC(C)C[C@@H]1NC(=O)[C@H](CCCCN)NC(=O)[C@H](C)NC(=O)[C@H](Cc2c[nH]cn2)NC(=O)[C@H](CCC(N)=O)NC(=O)[C@@H]2CSSC[C@@H]3NC(=O)[C@H](CC(N)=O)NC(=O)[C@H](C)NC(=O)[C@H](CCCNC(=N)N)NC(=O)[C@H](Cc4ccc(O)cc4)NC(=O)[C@H](CCCCN)NC(=O)[C@H](CCC(N)=O)NC(=O)[C@H](CO)NC(=O)[C@H](CC(N)=O)NC(=O)[C@H](CCCCN)NC(=O)[C@H](CSSC[C@H](NC(=O)[C@H]([C@@H](C)O)NC(=O)[C@H](CCCCN)NC(=O)[C@H](C)NC3=O)C(=O)NCC(=O)N3CCC[C@H]3C(=O)N[C@H](C(=O)O)CSSC[C@H](NC(=O)[C@H](C)N)C(=O)N[C@@H](CCCCN)C(=O)N[C@@H](CC(=O)O)C(=O)NCC(=O)N[C@@H](Cc3ccccc3)C(=O)N3CCC[C@H]3C(=O)N[C@@H]([C@@H](C)O)C(=O)N[C@@H](C)C(=O)N[C@@H]([C@@H](C)O)C(=O)N2)NC(=O)[C@H](CC(N)=O)NC(=O)CNC(=O)[C@H](C(C)C)NC1=O [BcsTx2] (H-ACKDGFPTATCQHAKLVGNCKNSQKYRANCAKTCGPC-OH; disulfide 2-37, 11-30, 20-34; C-terminus assumed)
- inhibition at 3 µM (rKV1.6; 3 µM, n ≥ 3, read-out: inhibition of rKV1.6 current): 98%
- IC50 (rKV1.6; TEVC, 18–22 °C, ND96 pH 7.4, 500 ms depolarizations to 0 mV from −90 mV, Hill fit, n ≥ 3): 7.76 ± 1.9 nM
- inhibition at 3 µM (hKV1.3; 3 µM, n ≥ 3, read-out: inhibition of hKV1.3 current): 100%
- IC50 (hKV1.3; TEVC, 18–22 °C, ND96 pH 7.4, 500 ms depolarizations to 0 mV from −90 mV, Hill fit, mean ± standard error, n ≥ 3): 13.1 ± 3.29 nM
